Assay results reported in ChEMBL document CHEMBL3608278 (J Med Chem, 2015).
Bridge positions count the residues as written; N and C are the ends. Square brackets hold non-standard residues; d marks the D form. Peptide text beside a SMILES is read from it. 1Nal = N[C@@H](Cc1cccc2ccccc12)C(=O)O

Assays:
[1] = molecular target: T1, Potassium voltage-gated channel subfamily A member 3 (Homo sapiens, UniProt P22001); design: species or system Blood
[2] = molecular target: T1, Potassium voltage-gated channel subfamily A member 3; experiment: cell-based; design: species or system Blood
[3] = molecular target: T1, Potassium voltage-gated channel subfamily A member 3; type: cell-based, CHO-K1

T1 sequence (P22001 whole entry): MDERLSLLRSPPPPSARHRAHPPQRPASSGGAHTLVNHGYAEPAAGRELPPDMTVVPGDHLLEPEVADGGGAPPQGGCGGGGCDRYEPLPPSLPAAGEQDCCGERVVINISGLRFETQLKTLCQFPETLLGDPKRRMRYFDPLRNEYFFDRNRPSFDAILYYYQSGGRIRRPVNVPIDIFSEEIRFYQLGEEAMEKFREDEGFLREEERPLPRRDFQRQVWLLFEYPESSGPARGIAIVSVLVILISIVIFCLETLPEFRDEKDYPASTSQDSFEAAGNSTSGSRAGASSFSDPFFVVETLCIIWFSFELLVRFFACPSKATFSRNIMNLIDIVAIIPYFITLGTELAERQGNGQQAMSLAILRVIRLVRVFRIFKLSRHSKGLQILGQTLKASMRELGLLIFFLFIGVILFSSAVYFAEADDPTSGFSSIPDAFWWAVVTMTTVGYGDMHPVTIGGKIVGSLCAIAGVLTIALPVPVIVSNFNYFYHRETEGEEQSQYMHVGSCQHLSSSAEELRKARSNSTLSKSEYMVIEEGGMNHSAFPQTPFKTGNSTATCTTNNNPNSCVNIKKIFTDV

Structure (SMILES)	IC50 [1] [pM]	IC50 [2] [pM]	IC50 [3] [pM]
CC[C@H](C)[C@@H]1NC(=O)[C@@H](NC(=O)[C@H](CO)NC(=O)[C@@H](N)CCCNC(=N)N)CSSC[C@@H](C(=O)O)NC(=O)[C@H]([C@@H](C)O)NC(=O)CNC(=O)[C@@H]2CSSC[C@@H]3NC(=O)[C@H](CCC(N)=O)NC(=O)[C@H](Cc4ccccc4)NC(=O)[C@H](C)NC(=O)[C@H]([C@@H](C)O)NC(=O)[C@H](CSSC[C@H](NC(=O)[C@H](Cc4ccccc4)NC(=O)[C@H](CO)NC(=O)[C@H](CC(C)C)NC(=O)[C@H](CCCNC(=N)N)NC(=O)[C@H](Cc4ccc(O)cc4)NC(=O)[C@H](CCCCN)NC(=O)[C@H](CCSC)NC(=O)[C@H](CO)NC(=O)[C@H](Cc4cnc[nH]4)NC(=O)[C@H](CCCCN)NC3=O)C(=O)N[C@@H](CCCNC(=N)N)C(=O)N[C@@H](CCCCN)C(=O)N[C@@H]([C@@H](C)O)C(=O)N2)NC(=O)[C@H](CCCNC(=N)N)NC(=O)[C@H](CO)NC(=O)[C@H](CCCCN)NC(=O)[C@H](CCCNC(=N)N)NC(=O)[C@H]([C@@H](C)CC)NC(=O)[C@H]([C@@H](C)O)NC(=O)[C@H](CC(=O)O)NC1=O	1050	253	447
CC[C@H](C)[C@@H]1NC(=O)[C@@H](NC(=O)[C@H](CO)NC(=O)[C@@H](N)CCCNC(=N)N)CSSC[C@@H](C(=O)O)NC(=O)[C@H]([C@@H](C)O)NC(=O)CNC(=O)[C@@H]2CSSC[C@@H]3NC(=O)[C@H](CCC(N)=O)NC(=O)[C@H](Cc4ccccc4)NC(=O)[C@H](C)NC(=O)[C@H]([C@@H](C)O)NC(=O)[C@H](CSSC[C@H](NC(=O)[C@H](Cc4ccccc4)NC(=O)[C@H](CCCCN)NC(=O)[C@H](CC(C)C)NC(=O)[C@H](CCCNC(=N)N)NC(=O)[C@H](Cc4ccc(O)cc4)NC(=O)[C@H](CCCCN)NC(=O)[C@H](CCSC)NC(=O)[C@H](CO)NC(=O)[C@H](Cc4cnc[nH]4)NC(=O)[C@H](CCCCN)NC3=O)C(=O)N[C@@H](CCCNC(=N)N)C(=O)N[C@@H](CCCCN)C(=O)N[C@@H]([C@@H](C)O)C(=O)N2)NC(=O)[C@H](CCCNC(=N)N)NC(=O)[C@H](CO)NC(=O)[C@H](CCCCN)NC(=O)[C@@H]2CCCN2C(=O)[C@H]([C@@H](C)CC)NC(=O)[C@H]([C@@H](C)O)NC(=O)[C@H](CC(=O)O)NC1=O	496	273	122
CC[C@H](C)[C@@H]1NC(=O)[C@@H](NC(=O)[C@H](CO)NC(=O)[C@@H](N)CCCNC(=N)N)CSSC[C@@H](C(=O)O)NC(=O)[C@H]([C@@H](C)O)NC(=O)CNC(=O)[C@@H]2CSSC[C@@H]3NC(=O)[C@H](CCC(N)=O)NC(=O)[C@H](Cc4ccccc4)NC(=O)[C@H](CCCCN)NC(=O)[C@H]([C@@H](C)O)NC(=O)[C@H](CSSC[C@H](NC(=O)[C@H](Cc4ccccc4)NC(=O)[C@H](CO)NC(=O)[C@H](CC(C)C)NC(=O)[C@H](CCCNC(=N)N)NC(=O)[C@H](Cc4ccc(O)cc4)NC(=O)[C@H](CCCCN)NC(=O)[C@H](CCSC)NC(=O)[C@H](CO)NC(=O)[C@H](Cc4cnc[nH]4)NC(=O)[C@H](CCCCN)NC3=O)C(=O)N[C@@H](CCCNC(=N)N)C(=O)N[C@@H](CCCCN)C(=O)N[C@@H]([C@@H](C)O)C(=O)N2)NC(=O)[C@H](CCCNC(=N)N)NC(=O)[C@H](CO)NC(=O)[C@H](CCCCN)NC(=O)[C@@H]2CCCN2C(=O)[C@H]([C@@H](C)CC)NC(=O)[C@H]([C@@H](C)O)NC(=O)[C@H](Cc2cccc3ccccc23)NC1=O (H-RSCI[1Nal]TIPKSRCTKFQCKHSMKYRLSFCRKTCGTC-OH; disulfide 3-35, 12-28, 17-32)	201	75	73
CC[C@H](C)[C@@H]1NC(=O)[C@H]([C@@H](C)O)NC(=O)[C@H](CC(=O)O)NC(=O)[C@H](CCC(=O)O)NC(=O)[C@@H](NC(=O)[C@H](CO)NC(=O)[C@@H](N)CCCNC(=N)N)CSSC[C@@H](C(=O)O)NC(=O)[C@H]([C@@H](C)O)NC(=O)CNC(=O)[C@@H]2CSSC[C@@H]3NC(=O)[C@H](CCC(N)=O)NC(=O)[C@H](Cc4ccccc4)NC(=O)[C@H](C)NC(=O)[C@H]([C@@H](C)O)NC(=O)[C@H](CSSC[C@H](NC(=O)[C@H](Cc4ccccc4)NC(=O)[C@H](CO)NC(=O)[C@H](CC(C)C)NC(=O)[C@H](CCCNC(=N)N)NC(=O)[C@H](Cc4ccc(O)cc4)NC(=O)[C@H](CCCCN)NC(=O)[C@H](CCSC)NC(=O)[C@H](CO)NC(=O)[C@H](Cc4cnc[nH]4)NC(=O)[C@H](CCCCN)NC3=O)C(=O)N[C@@H](CCCNC(=N)N)C(=O)N[C@@H](CCCCN)C(=O)N[C@@H]([C@@H](C)O)C(=O)N2)NC(=O)[C@H](CCCNC(=N)N)NC(=O)[C@H](CO)NC(=O)[C@H](CCCCN)NC(=O)[C@@H]2CCCN2C1=O	50	31	75
CC[C@H](C)[C@@H]1NC(=O)[C@@H](NC(=O)[C@H](CO)NC(=O)[C@@H](N)CCCNC(=N)N)CSSC[C@@H](C(=O)O)NC(=O)[C@H]([C@@H](C)O)NC(=O)CNC(=O)[C@@H]2CSSC[C@@H]3NC(=O)[C@H](CCC(N)=O)NC(=O)[C@H](Cc4ccccc4)NC(=O)[C@H](C)NC(=O)[C@H]([C@@H](C)O)NC(=O)[C@H](CSSC[C@H](NC(=O)[C@H](Cc4ccccc4)NC(=O)[C@H](CO)NC(=O)[C@H](CC(C)C)NC(=O)[C@H](CCCNC(=N)N)NC(=O)[C@H](Cc4ccc(O)cc4)NC(=O)[C@H](CCCCN)NC(=O)[C@H](CCSC)NC(=O)[C@H](CO)NC(=O)[C@H](Cc4cnc[nH]4)NC(=O)[C@H](CCCCN)NC3=O)C(=O)N[C@@H](CCCNC(=N)N)C(=O)N[C@@H](CCCCN)C(=O)N[C@@H]([C@@H](C)O)C(=O)N2)NC(=O)[C@H](CCCNC(=N)N)NC(=O)[C@H](CO)NC(=O)[C@H](C)NC(=O)[C@@H]2CCCN2C(=O)[C@H]([C@@H](C)CC)NC(=O)[C@H]([C@@H](C)O)NC(=O)[C@H](CC(=O)O)NC1=O	81	45	119
CC[C@H](C)[C@@H]1NC(=O)[C@@H](NC(=O)[C@H](CO)NC(=O)[C@@H](N)CCCNC(=N)N)CSSC[C@@H](C(=O)O)NC(=O)[C@H]([C@@H](C)O)NC(=O)CNC(=O)[C@@H]2CSSC[C@@H]3NC(=O)[C@H](CCC(N)=O)NC(=O)[C@H](Cc4ccccc4)NC(=O)[C@H](C)NC(=O)[C@H]([C@@H](C)O)NC(=O)[C@H](CSSC[C@H](NC(=O)[C@H](Cc4ccccc4)NC(=O)[C@H](CO)NC(=O)[C@H](CC(C)C)NC(=O)[C@H](CCCNC(=N)N)NC(=O)[C@H](Cc4ccc(O)cc4)NC(=O)[C@H](CCCCN)NC(=O)[C@H](CCSC)NC(=O)[C@H](CO)NC(=O)[C@H](C)NC(=O)[C@H](CCCCN)NC3=O)C(=O)N[C@@H](CCCNC(=N)N)C(=O)N[C@@H](CCCCN)C(=O)N[C@@H]([C@@H](C)O)C(=O)N2)NC(=O)[C@H](CCCNC(=N)N)NC(=O)[C@H](CO)NC(=O)[C@H](CCCCN)NC(=O)[C@@H]2CCCN2C(=O)[C@H]([C@@H](C)CC)NC(=O)[C@H]([C@@H](C)O)NC(=O)[C@H](CC(=O)O)NC1=O	556	301	240
CC[C@H](C)[C@@H]1NC(=O)[C@@H](NC(=O)[C@H](CO)NC(=O)[C@@H](N)CCCNC(=N)N)CSSC[C@@H](C(=O)O)NC(=O)[C@H]([C@@H](C)O)NC(=O)CNC(=O)[C@@H]2CSSC[C@@H]3NC(=O)[C@H](CCC(N)=O)NC(=O)[C@H](Cc4ccccc4)NC(=O)[C@H](C)NC(=O)[C@H]([C@@H](C)O)NC(=O)[C@H](CSSC[C@H](NC(=O)[C@H](Cc4ccccc4)NC(=O)[C@H](CO)NC(=O)[C@H](CC(C)C)NC(=O)[C@H](CCCNC(=N)N)NC(=O)[C@H](Cc4ccc(O)cc4)NC(=O)[C@H](CCCCN)NC(=O)[C@H](CCSC)NC(=O)[C@H](Cc4cccc5ccccc45)NC(=O)[C@H](Cc4cnc[nH]4)NC(=O)[C@H](CCCCN)NC3=O)C(=O)N[C@@H](CCCNC(=N)N)C(=O)N[C@@H](CCCCN)C(=O)N[C@@H]([C@@H](C)O)C(=O)N2)NC(=O)[C@H](CCCNC(=N)N)NC(=O)[C@H](CO)NC(=O)[C@H](CCCCN)NC(=O)[C@@H]2CCCN2C(=O)[C@H]([C@@H](C)CC)NC(=O)[C@H]([C@@H](C)O)NC(=O)[C@H](CC(=O)O)NC1=O	> 100000	> 100000	> 3330
CC[C@H](C)[C@@H]1NC(=O)[C@@H](NC(=O)[C@H](CO)NC(=O)[C@@H](N)CCC(=O)O)CSSC[C@@H](C(=O)O)NC(=O)[C@H]([C@@H](C)O)NC(=O)CNC(=O)[C@@H]2CSSC[C@@H]3NC(=O)[C@H](CCC(N)=O)NC(=O)[C@H](Cc4ccccc4)NC(=O)[C@H](C)NC(=O)[C@H]([C@@H](C)O)NC(=O)[C@H](CSSC[C@H](NC(=O)[C@H](Cc4ccccc4)NC(=O)[C@H](CO)NC(=O)[C@H](CC(C)C)NC(=O)[C@H](CCCNC(=N)N)NC(=O)[C@H](Cc4ccc(O)cc4)NC(=O)[C@H](CCCCN)NC(=O)[C@H](CCSC)NC(=O)[C@H](CO)NC(=O)[C@H](Cc4cnc[nH]4)NC(=O)[C@H](CCCCN)NC3=O)C(=O)N[C@@H](CCCNC(=N)N)C(=O)N[C@@H](CCCCN)C(=O)N[C@@H]([C@@H](C)O)C(=O)N2)NC(=O)[C@H](CCCNC(=N)N)NC(=O)[C@H](CO)NC(=O)[C@H](CCCCN)NC(=O)[C@@H]2CCCN2C(=O)[C@H]([C@@H](C)CC)NC(=O)[C@H]([C@@H](C)O)NC(=O)[C@H](CC(=O)O)NC1=O	249	214	151
CC[C@H](C)[C@@H]1NC(=O)[C@@H](NC(=O)[C@H](CO)NC(=O)[C@@H](N)CCCNC(=N)N)CSSC[C@@H](C(=O)O)NC(=O)[C@H]([C@@H](C)O)NC(=O)CNC(=O)[C@@H]2CSSC[C@@H]3NC(=O)[C@H](CCC(N)=O)NC(=O)[C@H](Cc4ccccc4)NC(=O)[C@H](C)NC(=O)[C@H]([C@@H](C)O)NC(=O)[C@H](CSSC[C@H](NC(=O)[C@H](Cc4ccccc4)NC(=O)[C@H](CO)NC(=O)[C@H](CC(C)C)NC(=O)[C@H](CCCNC(=N)N)NC(=O)[C@H](Cc4ccc(O)cc4)NC(=O)[C@H](CCCCN)NC(=O)[C@H](CCSC)NC(=O)[C@H](CO)NC(=O)[C@H](Cc4c[nH]cn4)NC(=O)[C@H](CCCCN)NC3=O)C(=O)N[C@@H](CCCNC(=N)N)C(=O)N[C@@H](CCCCN)C(=O)N[C@@H]([C@@H](C)O)C(=O)N2)NC(=O)[C@H](CCCNC(=N)N)NC(=O)[C@H](CO)NC(=O)[C@H](CCCCN)NC(=O)[C@@H]2CCCN2C(=O)[C@H]([C@@H](C)CC)NC(=O)[C@H](Cc2cccc3ccccc23)NC(=O)[C@H](CC(=O)O)NC1=O	962	860	153
